Measured values published in patent US8946438B2, “Benzamides, production thereof, and use thereof as medicaments” (Boehringer Ingelheim International GmbH, priority 2008, dated 2015).

Each compound was assayed against p38 MAP-kinase (Homo sapiens, UniProt Q16539) (assay: Enzymatic assay: inhibition of p38 MAP-kinase (phosphorylation of GST-tagged ATF2, chemoluminescence bead readout)). Conditions: inhibitor 1 μM; activated p38 MAP-kinase 1 nM; 4 h preincubation; ATP 100 μM; ATF2 10 nM; read-out: % inhibitory effect at 1 μM.
Format: biochemical
Protocol: In this, the amount of a substrate phosphorylated by the kinase is quantified. The test is carried out as follows:
The kinase reaction is carried out in the presence of HEPES (20 mM, pH 7), MgCl2 (10 mM), DTT (1 mM) and TWEEN20 (0.01%). First, dimethylsulphoxide or inhibitor (final concentration: 1 μM) dissolved in dimethylsulphoxide are placed in a reaction vessel. Then the activated p38 MAP-kinase (final concentration 1 nM) is added and the mixture is incubated for 4 h at ambient temperature. Then a mixture of substrate (GST-tagged ATF2) and ATP is added and everything is incubated together for a further hour (final concentration ATP: 100 μM; final concentration ATF2: 10 nM).
The concentration of phosphorylated ATF2 is quantified by chemoluminescence-induced light emission. For this, a glutathione donor bead (final concentration: 5 μg/ml) which binds to the gluthathione on the ATF2 and phospho-ATF2 antibodies are added to the reaction mixture (final concentration: 3 nM; this binds the phosphate group added by the kinase reaction) to which a Protein A Acceptor Bead (final concentration: 5 μg/ml) binds. These components are dissolved in a buffer which contains 20 mM HEPES pH 7.0, 200 mM NaCL, 80 mM EDTA as well as 0.3% BSA. This reaction mixture is incubated in the dark for 1 hour at ambient temperature. When these beads come physically close, visible light is emitted which is measured in a photometer at 520-620 nm.
To determine the inhibitory activity of the compounds according to the invention a calculation is made to determine the percentage by which the kinase activity is inhibited at a fixed inhibitor concentration of 1 μM. The maximum activity is determined by non-inhibited kinase. The minimum activity or nonspecific background activity is determined using a reaction mixture without kinase. […] Table 2 summarises the degree of inhibition of the enzyme p38 MAP-kinase—as described hereinbefore—of the compounds according to the invention detailed in the section “Preparation of the final compounds”.

Chain of p38 MAP-kinase (Q16539 whole entry): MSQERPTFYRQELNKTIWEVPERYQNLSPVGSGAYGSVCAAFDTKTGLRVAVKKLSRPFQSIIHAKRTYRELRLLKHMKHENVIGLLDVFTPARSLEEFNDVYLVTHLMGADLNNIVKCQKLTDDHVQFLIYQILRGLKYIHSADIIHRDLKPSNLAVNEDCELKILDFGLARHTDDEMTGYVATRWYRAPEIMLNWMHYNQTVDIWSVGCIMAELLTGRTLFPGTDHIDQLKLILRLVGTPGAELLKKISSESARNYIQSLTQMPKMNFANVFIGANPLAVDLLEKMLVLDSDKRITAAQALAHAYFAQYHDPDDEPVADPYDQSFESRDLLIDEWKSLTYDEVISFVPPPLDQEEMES

| Structure (SMILES) | inhibition at 1 µM [%] |
| --- | --- |
| COc1c(NC(=O)c2ccc(C)c(Oc3cc(N(C)C4CCN(C)CC4)ncn3)c2)cc(C(C)(C)C)cc1NS(C)(=O)=O [4(17), N-(5-tert-butyl-3-methanesulphonylamino-2-methoxy-phenyl)-4-methyl-3-{6-[methyl-(1-methyl-piperidin-4-yl)-amino]-pyrimidin-4-yloxy}-benzamide] | 98.7 |
| COc1c(NC(=O)c2ccc(C)c(Oc3ccnc(N(C)C4CCNCC4)n3)c2)cc(C(C)(C)C)cc1NS(C)(=O)=O [5(14), N-(5-tert-butyl-3-methanesulphonylamino-2-methoxy-phenyl)-4-methyl-3-[2-(N-methyl-N-piperidin-4-yl-amino)-pyrimidin-4-yloxy]-benzamide] | 98.5 |
| COc1c(NC(=O)c2ccc(C)c(Oc3ccnc(CC4CCCN(C)CC4)n3)c2)cc(C(C)(C)C)cc1NS(C)(=O)=O (centres unmarked) [12(6), N-(5-tert-butyl-3-methanesulphonylamino-2-methoxy-phenyl)-4-methyl-3-[2-(1-methyl-azepan-4-ylmethyl)-pyrimidin-4-yloxy]-benzamide] | 99.6 |
| COc1c(NC(=O)c2ccc(C)c(Oc3cc(CN4CCNCC4)ncn3)c2)cc(C(C)(C)C)cc1NS(C)(=O)=O [5(7), N-(5-tert-butyl-3-methanesulphonylamino-2-methoxy-phenyl)-4-methyl-3-(6-piperazin-1-ylmethyl-pyrimidin-4-yloxy)-benzamide] | 97.8 |
| COc1c(NC(=O)c2ccc(Cl)c(Oc3ccnc(NC4CCN(C)CC4)c3)c2)cc(C(C)(C)C)cc1NS(C)(=O)=O [Example 10, N-(5-tert-butyl-3-methanesulphonylamino-2-methoxy-phenyl)-4-chloro-3-[2-(1-methyl-piperidin-4-ylamino)-pyridin-4-yloxy]-benzamide] | 99.6 |
| COc1c(NC(=O)c2ccc(Cl)c(Oc3ccnc(CN4CCCN(C)CC4)c3)c2)cc(C(C)(C)C)cc1NS(C)(=O)=O [8(39), N-(5-tert-butyl-3-methanesulphonylamino-2-methoxy-phenyl)-4-chloro-3-[2-(4-methyl-[1,4]diazepan-1-ylmethyl)-pyridin-4-yloxy]-benzamide] | 98.9 |
| COc1c(NC(=O)c2cc(Cl)c(C)c(Oc3ccnc(N4CCNCC4)n3)c2)cc(C(C)(C)C)cc1NS(C)(=O)=O [5(12), N-(5-tert-butyl-3-methanesulphonylamino-2-methoxy-phenyl)-3-chloro-4-methyl-5-(2-piperazin-1-yl-pyrimidin-4-yloxy)-benzamide] | 98.6 |

Other lines, results leading:

| inhibition at 1 µM [%] | Structure (SMILES) |
| --- | --- |
| 95.9 | COc1c(NC(=O)c2ccc(C)c(Oc3ccnc(CN[C@@H]4CCOC4)c3)c2)cc(C(C)(C)C)cc1NS(C)(=O)=O [8(15), (R)-N-(5-tert-butyl-3-methanesulphonylamino-2-methoxy-phenyl)-4-methyl-3-{2-[(tetrahydro-furan-3-ylamino)-methyl]-pyridin-4-yloxy}-benzamide] |
| 99.5 | COc1c(CSC)cc(C(C)(C)C)cc1NC(=O)c1ccc(C)c(Oc2ccnc(CC3CCNCC3)c2)c1 [5(40), N-(5-tert-butyl-2-methoxy-3-methylsulphanylmethyl-phenyl)-4-methyl-3-(2-piperidin-4-ylmethyl-pyridin-4-yloxy)-benzamide] |
| 99.7 | COc1c(NC(=O)c2ccc(C)c(Oc3ccnc(CC4CCNCC4)n3)c2)cc(C(C)(C)C)cc1NS(C)(=O)=O [5(19), N-(5-tert-butyl-3-methanesulphonylamino-2-methoxy-phenyl)-4-methyl-3-(2-piperidin-4-ylmethyl-pyrimidin-4-yloxy)-benzamide] |
| 97.5 | COc1c(NC(=O)c2ccc(C)c(Oc3ccnc(CC4CCCN(C)CC4)c3)c2)cc(C(C)(C)C)cc1NS(C)(=O)=O (centres unmarked) [Example 12, N-(5-tert-butyl-3-methanesulphonylamino-2-methoxy-phenyl)-4-methyl-3-[2-(1-methyl-azepan-4-ylmethyl)-pyridin-4-yloxy]-benzamide] |
